From patent US8614251B2, “Crystalline form VI of agomelatine, preparation method and application thereof” (Les Laboratories Servier, priority 2009, dated 2013)
Values after ≈ are worked out from the molar mass of the structure shown.

Experiments:
[1] = Stability of crystalline forms on storage at 40° C. for 20 days, purity by HPLC; assay type: physicochemical; conditions: for Purity after storage in the thermostatically controlled containers for 20 days / Purity before storage: HPLC
Description: Crystalline forms II, III, IV and VI are respectively placed in a thermostatically controlled container at 40° C. for 20 days. The stability of the said crystalline forms is assessed by high performance liquid chromatography.
Chromatographic conditions: octadecylsilane bonded silica as filler; a mixed solution of 10 mM/L phosphate buffer (adjusted to pH 7.0 by sodium hydroxide) and acetonitrile in 2:7 by volume as mobile phase; column temperature 40° C.; detection wavelength 220 nm. The purity is determined using an internal standard method.
The crystalline forms II, III, IV and VI were formulated with the mobile phase as 1 mg/mL solution. 10 μL of each of the solution was removed and injected into the liquid chromatograph. The chromatograms were recorded.
The assay was carried out using an external standard method as described under Purity Measurement of the Sample.

[2] = Solubility measurement in water by HPLC, external standard method; assay type: physicochemical
Description: 3. Solubility Measurement in Water
The measurement was carried out by HPLC using an external standard method.

SMILES | Purity after storage in the thermostatically controlled containers for 20 days ([1]; 40° C., 20 days) [%] | Purity before storage [1] [%] | Solubility compared with the existing crystalline forms [2] | solubility ([2]; HPLC) [µg/mL] | Stability compared with the existing crystalline forms ([1]; 40° C., 20 days)
COc1ccc2cccc(CCNC(C)=O)c2c1 [crystalline form III, N-[2-(7-methoxy-1-naphthyl)ethyl]acetamide] | 99.10 | 99.77 |  |  | 
COc1ccc2cccc(CCNC(C)=O)c2c1 [crystalline form IV, N-[2-(7-methoxy-1-naphthyl)ethyl]acetamide] | 99.54 | 99.82 |  |  | 
COc1ccc2cccc(CCNC(C)=O)c2c1 [crystalline form II, N-[2-(7-methoxy-1-naphthyl)ethyl]acetamide] | 99.24 | 99.79 |  |  | 
COc1ccc2cccc(CCNC(C)=O)c2c1 [crystalline form VI, N-[2-(7-methoxy-1-naphthyl)ethyl]acetamide] | 99.55 | 99.60 | superior | 1240 (≈ 5.1 mM) | superior
